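Protocol summary: plate cells (96-well), add compound at 5 concentrations, incubate 48 h, interpolate endpoints linearly. The concentration for 50% growth inhibition is given as GI50.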 Active and inactive are the calls of the source. Cut-off read from the data, not from the text of the source: active = GI50 up to about 1.1 µM and inactive = higher.
What was measured:
Test in all cases: NCI anticancer screen, dose series, 48 h
OVCAR-8 = test system: OVCAR-8
MDA-MB-231 = test system: MDA-MB-231
UO-31 = test system: UO-31
NCI/ADR-RES = test system: NCI/ADR-RES
SK-MEL-5 = test system: SK-MEL-5
K562 = test system: K562
MCF7 = test system: MCF7
HCT-15 = test system: HCT-15
HL-60 = test system: HL-60
SN12C = test system: SN12C
SF-268 = test system: SF-268
RPMI-8226 = test system: RPMI-8226
A498 = test system: A498
SK-OV-3 = test system: SK-OV-3
Malme-3M = test system: Malme-3M
MDA-N = test system: MDA-N
OVCAR-3 = test system: OVCAR-3
KM12 = test system: KM12
U-251 = test system: U-251
DU-145 = test system: DU-145

SMILES	GI50 (OVCAR-8)	GI50 (MDA-MB-231)	GI50 (UO-31)	GI50 (NCI/ADR-RES)	GI50 (SK-MEL-5)	GI50 (K562)	GI50 (MCF7)	GI50 (HCT-15) [µM]	GI50 (HL-60)	GI50 (SN12C)	GI50 (SF-268)	GI50 (RPMI-8226)	GI50 (A498)	GI50 (SK-OV-3)	GI50 (Malme-3M)	GI50 (MDA-N)	GI50 (OVCAR-3)	GI50 (KM12)	GI50 (U-251)	GI50 (DU-145)
C/C(=N/NC(=S)Nc1cccc(C)c1)c1ccccn1	< 0.0183 µM (active)	< 0.01 µM (active)	0.285 µM (active)	< 0.01 µM (active)	0.061 µM (active)	< 0.01 µM (active)	< 0.01 µM (active)	0.0119	< 0.01 µM (active)	0.226 µM (active)	0.21 µM (active)	< 0.01 µM (active)	1.56 µM (inactive)	0.025 µM (active)	0.319 µM (active)	1.35 µM (inactive)	< 0.01 µM (active)	0.141 µM (active)	0.0208 µM (active)	2.19 µM (inactive)
O=C1NC(=O)C23C(=O)NC(=O)C12C1C=CC3CC1 (centres undefined)	> 10 µM (inactive)	> 10 µM (inactive)	> 10 µM (inactive)	> 10 µM (inactive)	> 10 µM (inactive)	> 10 µM (inactive)	> 10 µM (inactive)	> 10	> 10 µM (inactive)	> 10 µM (inactive)	> 10 µM (inactive)	> 10 µM (inactive)	> 10 µM (inactive)	> 10 µM (inactive)	> 10 µM (inactive)	> 10 µM (inactive)	> 10 µM (inactive)	> 10 µM (inactive)	> 10 µM (inactive)	> 10 µM (inactive)
COc1ccc(/C(=N/N=c2\[nH]c3ccccc3n2Cc2ccccc2)C(=O)O)cc1	21.8 µM (inactive)	23.3 µM (inactive)	25.8 µM (inactive)	5.19 µM (inactive)	15.5 µM (inactive)	22.7 µM (inactive)	13.2 µM (inactive)	12.6	3.19 µM (inactive)	5.96 µM (inactive)	7.5 µM (inactive)	10 µM (inactive)	13.1 µM (inactive)	13.7 µM (inactive)	17.6 µM (inactive)	32 µM (inactive)	2.52 µM (inactive)	17.5 µM (inactive)	11.1 µM (inactive)	30.7 µM (inactive)
Cc1cnc2c(c1)C(=O)C1=C(C2=O)C2OC(=O)CC2OC1(C)C (centres undefined)	0.29 µM (active)	0.0764 µM (active)	0.458 µM (active)	0.625 µM (active)	0.317 µM (active)	0.0209 µM (active)	0.0533 µM (active)	0.0643	0.0148 µM (active)	0.161 µM (active)	0.223 µM (active)	0.188 µM (active)	1.83 µM (inactive)	1.35 µM (inactive)	0.0736 µM (active)	0.281 µM (active)	< 0.01 µM (active)	0.431 µM (active)	0.109 µM (active)	1.64 µM (inactive)
COc1cc(/C=C2\CCc3cc(OC)c(OC)cc3C2=O)cc(OC)c1	9.02 µM (inactive)	12.9 µM (inactive)	20.5 µM (inactive)	3.15 µM (inactive)	3.87 µM (inactive)	3.03 µM (inactive)	4.2 µM (inactive)	3.62	3.51 µM (inactive)	5 µM (inactive)	41.2 µM (inactive)	12.8 µM (inactive)	6.82 µM (inactive)	14.2 µM (inactive)	10 µM (inactive)	1.45 µM (inactive)	4.47 µM (inactive)	4.88 µM (inactive)	6.28 µM (inactive)	9.98 µM (inactive)
O=C1NC(NNc2ccccc2)=N/C1=C\c1ccco1	17.6 µM (inactive)	20 µM (inactive)	27.8 µM (inactive)	26.2 µM (inactive)	25.5 µM (inactive)	–	15.5 µM (inactive)	16	20.3 µM (inactive)	22.1 µM (inactive)	22.4 µM (inactive)	16.3 µM (inactive)	46.8 µM (inactive)	> 100 µM (inactive)	28.1 µM (inactive)	26.9 µM (inactive)	17.5 µM (inactive)	11.2 µM (inactive)	17.7 µM (inactive)	17.5 µM (inactive)
O=C(NCCc1ccccc1)c1cc(/C=C/c2cc(O)ccc2O)ccc1O	3.85 µM (inactive)	4.36 µM (inactive)	1.7 µM (inactive)	3.43 µM (inactive)	2.74 µM (inactive)	2.59 µM (inactive)	2.62 µM (inactive)	2.71	2.12 µM (inactive)	4.92 µM (inactive)	3.19 µM (inactive)	1.82 µM (inactive)	4.4 µM (inactive)	13 µM (inactive)	2.22 µM (inactive)	2.96 µM (inactive)	2.67 µM (inactive)	6.05 µM (inactive)	2.36 µM (inactive)	8.59 µM (inactive)
